According to ChEMBL document CHEMBL1201862, “PubChem BioAssay data set” (2004):
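Interpolation was linear, between the two tested concentrations surrounding the appropriate level; five concentrations were tested over 48 hours in 96-well plates. The concentration for 50% growth inhibition is given as GI50.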 Activity calls are given as the source filed them. Rule as the data show it: active = GI50 up to about 1.1 µM and inactive = higher.

Key:
Assay in all cases: growth of human tumour cells (NCI), 48 h
HCT-116 = test system: HCT-116
CAKI-1 = test system: CAKI-1
MOLT-4 = test system: MOLT-4
ACHN = test system: ACHN
NCI-H23 = test system: NCI-H23
NCI-H460 = test system: NCI-H460
M19-MEL = test system: M19-MEL
SF-295 = test system: SF-295
HL-60 = test system: HL-60
OVCAR-8 = test system: OVCAR-8
786-0 = test system: 786-0
SF-268 = test system: SF-268
IGROV-1 = test system: IGROV-1
OVCAR-4 = test system: OVCAR-4
SK-MEL-28 = test system: SK-MEL-28
SK-OV-3 = test system: SK-OV-3
M14 = test system: M14
SNB-78 = test system: SNB-78
UO-31 = test system: UO-31
DMS-114 = test system: DMS-114
KM12 = test system: KM12
HOP-62 = test system: HOP-62
Malme-3M = test system: Malme-3M
DMS-273 = test system: DMS-273
A549 = test system: A549
A498 = test system: A498
SNB-19 = test system: SNB-19
RPMI-8226 = test system: RPMI-8226
EKVX = test system: EKVX
OVCAR-5 = test system: OVCAR-5
TK-10 = test system: TK-10
UACC-62 = test system: UACC-62
HT-29 = test system: HT-29
CCRF-CEM = test system: CCRF-CEM
LXFL 529 = test system: LXFL 529
SK-MEL-2 = test system: SK-MEL-2
SN12C = test system: SN12C
SK-MEL-5 = test system: SK-MEL-5
DLD-1 = test system: DLD-1
SW-620 = test system: SW-620
KM-20L2 = test system: KM-20L2
UACC-257 = test system: UACC-257
NCI-H226 = test system: NCI-H226
U-251 = test system: U-251
NCI-H522 = test system: NCI-H522
HOP-18 = test system: HOP-18
K562 = test system: K562
HCC 2998 = test system: HCC 2998
OVCAR-3 = test system: OVCAR-3
HCT-15 = test system: HCT-15
COLO 205 = test system: COLO 205
HOP-92 = test system: HOP-92
XF498 = test system: XF498
SNB-75 = test system: SNB-75
RXF 631 = test system: RXF 631
SF-539 = test system: SF-539
LOX IMVI = test system: LOX IMVI
SR = test system: SR
PC-3 = test system: PC-3
MDA-N = test system: MDA-N
DU-145 = test system: DU-145
NCI/ADR-RES = test system: NCI/ADR-RES
MCF7 = test system: MCF7
BT-549 = test system: BT-549
MDA-MB-435 = test system: MDA-MB-435
RXF 393 = test system: RXF 393

O=c1c2ccccc2nc(-c2ccccc2)n1NC1OC(CO)C(O)C(O)C1O (stereo not given)
GI50 (HCT-116): > 100 µM (inactive)
GI50 (CAKI-1): > 100 µM (inactive)
GI50 (MOLT-4): > 100 µM (inactive)
GI50 (ACHN): > 100 µM (inactive)
GI50 (NCI-H23): > 100 µM (inactive)
GI50 (NCI-H460): > 100 µM (inactive)
GI50 (M19-MEL): > 100 µM (inactive)
GI50 (SF-295): > 100 µM (inactive)
GI50 (HL-60): > 100 µM (inactive)
GI50 (OVCAR-8): > 100 µM (inactive)
GI50 (786-0): > 100 µM (inactive)
GI50 (SF-268): > 100 µM (inactive)
GI50 (IGROV-1): > 100 µM (inactive)
GI50 (OVCAR-4): > 100 µM (inactive)
GI50 (SK-MEL-28): > 100 µM (inactive)
GI50 (SK-OV-3): > 100 µM (inactive)
GI50 (M14): > 100 µM (inactive)
GI50 (SNB-78): > 100 µM (inactive)
GI50 (UO-31): > 100 µM (inactive)
GI50 (DMS-114): > 100 µM (inactive)
GI50 (KM12): > 100 µM (inactive)
GI50 (HOP-62): > 100 µM (inactive)
GI50 (Malme-3M): > 100 µM (inactive)
GI50 (DMS-273): > 100 µM (inactive)
GI50 (A549): > 100 µM (inactive)
GI50 (A498): > 100 µM (inactive)
GI50 (SNB-19): > 100 µM (inactive)
GI50 (RPMI-8226): > 100 µM (inactive)
GI50 (EKVX): > 100 µM (inactive)
GI50 (OVCAR-5): > 100 µM (inactive)
GI50 (TK-10): > 100 µM (inactive)
GI50 (UACC-62): > 100 µM (inactive)
GI50 (HT-29): > 100 µM (inactive)
GI50 (CCRF-CEM): > 100 µM (inactive)
GI50 (LXFL 529): > 100 µM (inactive)
GI50 (SK-MEL-2): > 100 µM (inactive)
GI50 (SN12C): > 100 µM (inactive)
GI50 (SK-MEL-5): > 100 µM (inactive)
GI50 (DLD-1): > 100 µM (inactive)
GI50 (SW-620): > 100 µM (inactive)
GI50 (KM-20L2): > 100 µM (inactive)
GI50 (UACC-257): > 100 µM (inactive)
GI50 (NCI-H226): > 100 µM (inactive)
GI50 (U-251): > 100 µM (inactive)
GI50 (NCI-H522): > 100 µM (inactive)
GI50 (HOP-18): 1.46 µM (inactive)
GI50 (K562): > 100 µM (inactive)
GI50 (HCC 2998): > 100 µM (inactive)
GI50 (OVCAR-3): > 100 µM (inactive)
GI50 (HCT-15): > 100 µM
GI50 (COLO 205): > 100 µM (inactive)
GI50 (HOP-92): > 100 µM (inactive)
GI50 (XF498): > 100 µM (inactive)
GI50 (SNB-75): 85.3 µM (inactive)
GI50 (RXF 631): > 100 µM (inactive)
GI50 (SF-539): > 100 µM (inactive)

COc1cc(C2c3cc4c(cc3[C@@H](Nc3ccc([N+](=O)[O-])cc3)C3COC(=O)[C@H]23)OCO4)cc(OC)c1O (stereo not given in full)
GI50 (HCT-116): 2.27 µM (inactive)
GI50 (CAKI-1): 0.438 µM (active)
GI50 (MOLT-4): 0.0171 µM (active)
GI50 (ACHN): 0.25 µM (active)
GI50 (NCI-H23): 0.569 µM (active)
GI50 (NCI-H460): 0.0286 µM (active)
GI50 (M19-MEL): 3.06 µM (inactive)
GI50 (LOX IMVI): 0.459 µM (active)
GI50 (SF-295): 0.466 µM (active)
GI50 (HL-60): 0.263 µM (active)
GI50 (OVCAR-8): 1.83 µM (inactive)
GI50 (786-0): 0.652 µM (active)
GI50 (SF-268): 2.01 µM (inactive)
GI50 (IGROV-1): 4.72 µM (inactive)
GI50 (SR): 0.0552 µM (active)
GI50 (OVCAR-4): 12.2 µM (inactive)
GI50 (SK-MEL-28): 3.84 µM (inactive)
GI50 (SK-OV-3): 1.54 µM (inactive)
GI50 (M14): 1.33 µM (inactive)
GI50 (SNB-78): 5.68 µM (inactive)
GI50 (UO-31): 1.52 µM (inactive)
GI50 (DMS-114): 1.52 µM (inactive)
GI50 (KM12): 2.56 µM (inactive)
GI50 (HOP-62): 0.321 µM (active)
GI50 (Malme-3M): 2.01 µM (inactive)
GI50 (DMS-273): 0.555 µM (active)
GI50 (A498): 0.676 µM (active)
GI50 (PC-3): 2.16 µM (inactive)
GI50 (SNB-19): 0.778 µM (active)
GI50 (MDA-N): 4.09 µM (inactive)
GI50 (RPMI-8226): 0.525 µM (active)
GI50 (DU-145): 0.362 µM (active)
GI50 (EKVX): 3.37 µM (inactive)
GI50 (OVCAR-5): 2.69 µM (inactive)
GI50 (TK-10): 2.41 µM (inactive)
GI50 (UACC-62): 0.971 µM (active)
GI50 (HT-29): 2.64 µM (inactive)
GI50 (CCRF-CEM): 0.198 µM (active)
GI50 (LXFL 529): 6.4 µM (inactive)
GI50 (SK-MEL-2): 4.26 µM (inactive)
GI50 (SN12C): 0.853 µM (active)
GI50 (SK-MEL-5): 0.586 µM (active)
GI50 (NCI/ADR-RES): 3.39 µM (inactive)
GI50 (SW-620): 1.5 µM (inactive)
GI50 (KM-20L2): 2.12 µM (inactive)
GI50 (UACC-257): 4.65 µM (inactive)
GI50 (NCI-H226): 0.67 µM (active)
GI50 (MCF7): 0.615 µM (active)
GI50 (BT-549): 2.3 µM (inactive)
GI50 (U-251): 0.631 µM (active)
GI50 (NCI-H522): 1.63 µM (inactive)
GI50 (MDA-MB-435): 6.11 µM (inactive)
GI50 (RXF 393): 2.02 µM (inactive)
GI50 (HOP-18): 11.2 µM (inactive)
GI50 (K562): 2.44 µM (inactive)
GI50 (HCC 2998): 2.99 µM (inactive)
GI50 (OVCAR-3): 4.57 µM (inactive)
GI50 (HCT-15): 2.87 µM
GI50 (COLO 205): 3.79 µM (inactive)
GI50 (HOP-92): 1.78 µM (inactive)
GI50 (XF498): 2.07 µM (inactive)
GI50 (SNB-75): 1.19 µM (inactive)
GI50 (RXF 631): 1.6 µM (inactive)
GI50 (SF-539): 0.92 µM (active)
